# Assay results published in PMC10147923, “Pain-causing stinging nettle toxins target TMEM233 to modulate NaV1.7 function” (Nature Communications, 2023).
# Where “and” joins values, the source holds several entries; their conditions need not be identical. Equal entries are not always repeated. Positions of bridges follow the written chain, without caps; N, C: chain ends. Residues, ends and D or L forms follow the SMILES beside them.
# Tests used:
# hNaV1.2 = experiment: Persistent current, HEK293-hNaV1.2/β1; assay type: cell-based, human; settings: ExTxA 1 µM; individual cells
# hNaV1.7 = experiment: Persistent current, CHO hNaV1.7, no β subunit; assay type: cell-based, human; settings: ExTxA 1 µM
# [1] = system: total and TTX-s NaV current in wild-type DRG neurons; experiment: Persistent total NaV current, manual patch clamp, mouse DRG neurons; assay type: cell-based
# [2] = system: DRG neurons from wild-type C57BL/6 mice; experiment: Calcium imaging, wild-type DRG neurons; assay type: cell-based, mouse
# Experimental: DRG from all spinal levels were isolated from male and female mice (wild-type C57BL/6 J, Tmem233^Cre/Cre, NaV1.8^Cre/Cre, NaV1.9^−/− or littermate controls) as previously described[36],[38],[39]. For Ca^2+ imaging experiments, DRG neurons were dissociated following incubation with 1% collagenase type IV (Worthington, New Jersey, USA) for 1.5 h (37 °C, 5% CO2) and 2.5% trypsin (Sigma-Aldrich, Montana, USA) for 15 min and resuspended in Dulbecco’s modified Eagle’s medium (DMEM) (Sigma-Aldrich, New South Wales, Australia) supplemented with 10% fetal bovine serum (FBS) (Thermofisher, Massachusetts, USA) and penicillin/streptomycin (Thermofisher, Massachusetts, USA). Following plating in 96-well poly-D-lysine–coated culture plates, isolated neurons were incubated for 24 h at 37 °C with 5% CO2 prior to imaging.
# Dissociated DRG neurons from Tmem233^Cre/Cre and C57BL/6 mice were plated on PDL-coated 96-well black-walled imaging plates and loaded with Fluo-4 AM calcium indicator (5 μM) (Invitrogen, Massachusetts, USA) for 1 h in culture medium. Cells were washed with Hanks’ balanced salt solution containing 20 mM HEPES and then transferred to the recording chamber of a Nikon Ti-E Deconvolution inverted microscope equipped with a Lumencor Spectra LED light source. Fluorescence images (excitation, 485 nm; emission, 521 nm) were acquired at 1 frame per second using a ×20 objective. Following the recording of baseline fluorescence (20 s), cells were consecutively exposed to buffer control (0.1% BSA, t = 30 s), ExTxA (10 nM, t = 60 s), and 30 mM KCl (30 mM, t = 210 s). […] Cells responding to buffer control were excluded from analysis.
# [3] = NMR of 15N-labelled ExTxA with dodecylphosphocholine micelles; assay type: binding; settings: 1H-15N TROSY, 30 µM peptide, 20 mM Tris pH 8, 50 mM NaCl, 10% DPC, 298 K
# Experimental: For NMR analysis, lyophilized ^15N-labelled ExTxA was resuspended either in 40% deuterated acetonitrile or buffer containing 20 mM Tris pH 8, 50 mM NaCl, 10% (w/v) dodecylphosphocholine (DPC) and 5% D2O. ^1H-^15N transverse relaxation optimized spectroscopy (TROSY) spectra were acquired for the peptide samples (30 µM) on a Bruker Avance 900 MHz NMR spectrometer equipped with a triple resonance cryogenic probe at 298 K. The spectra were processed using TOPSPIN v4.1.4 software (Bruker, Massachusetts, USA).
# NaV1.7/TMEM233 [4] = target: T1, NaV1.7/TMEM233 (Homo sapiens, UniProt B4DJY2+Q15858); assay type: cell-based
# [5] = system: NaV currents in SH-SY5Y cells; experiment: Persistent current, SH-SY5Y cells; assay type: cell-based, human; settings: ExTxA 1 µM
# NaV1.7/TMEM233 [6] = target: T1, NaV1.7/TMEM233; assay type: cell-based; settings: extracellular ExTxA
# Experimental: To determine recovery from fast inactivation, a 20 ms pulse to 0 mV from a holding potential of −90 mV was used to induce fast inactivation. A subsequent recovery period, ranging from 1 ms to 2216 ms in 50% increments at −90 mV, was followed by a last 20 ms test pulses to 0 mV to determine the time-dependence of recovery from fast inactivation. The proportion of available channels was determined by normalizing peak currents from the last to the first pulse. A two-phase exponential equation was fit to the normalized current, plotted as a function of time, to determine the time constants τ1 and τ2 of recovery from fast inactivation.
structure (smiles),measurement,setting,value
"CC[C@H](C)[C@@H]1NC(=O)[C@H](CCCNC(=N)N)NC(=O)[C@H](Cc2ccccc2)NC(=O)[C@H](CC(C)C)NC(=O)[C@H](CO)NC(=O)[C@@H]2CSSC[C@@H]3NC(=O)[C@H]([C@@H](C)O)NC(=O)[C@H](CSSC[C@H](NC(=O)[C@H](CCCNC(=N)N)NC(=O)[C@@H]4CCCN4C(=O)[C@@H](N)CC(C)C)C(=O)N[C@@H](CC(=O)O)C(=O)N[C@@H](CO)C(=O)N4CCC[C@H]4C(=O)N[C@@H](Cc4ccccc4)C(=O)N2)NC(=O)[C@H](CCCCN)NC(=O)[C@H](CC(=O)O)NC(=O)CNC(=O)[C@H](CSSC[C@@H](C(=O)N[C@H](C(=O)N2CCC[C@H]2C(=O)N[C@@H](CC(=O)O)C(=O)N[C@H](C(=O)O)C(C)C)C(C)C)NC(=O)[C@H](CC(C)C)NC(=O)CNC(=O)[C@H](Cc2ccccc2)NC(=O)[C@H]([C@@H](C)CC)NC(=O)[C@@H]2CCCN2C(=O)[C@H](CC(C)C)NC(=O)[C@@H]2CCCN2C(=O)[C@H](C(C)C)NC3=O)NC(=O)[C@H](CC(C)C)NC(=O)CNC1=O [ExTxA, excelsatoxin A] (H-LPRCDSPFCSLFRIGLCGDKCTCVPLPIFGLCVPDV-OH; disulfide 4-21, 9-23, 17-32)",persistent current (I40 ms/Ipeak),hNaV1.2,-0.01884 and -0.01572 and 0.004985 and 0.03852 and -0.01184 and -0.02181 and 0.005193 and -0.01291 and 0.01563 and -0.00224 and -0.00414
same,CHO cells persistent current (I40 ms),"hNaV1.7; hNaV1.7 alone, mean ± SEM, n = 6",0.000 ± 0.002 nA
same,Δ persistent current (I40 ms/Ipeak) in CHO hNaV1.7,"hNaV1.7; no β subunit, mean, n = 12",0.001 ± 0.004 and 0.0009513
same,DRG total persistent NaV current (I40 ms/Ipeak),"[1]; ExTxA 100 nM in 0.1% BSA, depolarization to -20 mV from -90 mV, mean, n = 6",0.513 ± 0.10 and 0.5133
same,"Mean Diff. of persistent current, Control vs. ExTxA","[1]; ExTxA 100 nM, Tukey's multiple comparisons",-0.4859
same,DRG total persistent NaV current (I40 ms/Ipeak),"[1]; ExTxA 100 nM, individual cells, one line per cell",0.842 and 0.3774 and 0.8283 and 0.3793 and 0.3284 and 0.3245
same,ExTxA-induced DRG Ca2+ responses,"[2]; ExTxA 10 nM, wt, Fluo-4, >1.5-fold increase, mean ± SEM, n = 10 wells",53.20 ± 1.789 % neurons activated
same,calcium imaging response (Fig. 3f),"[2]; WT, individual values, one line each (n = 10)",51.5152 and 56.8182 and 58.0645 and 43.75 and 44.8276 and 50.7042 and 59.292 and 51.8519
same,"calcium imaging response (Fig. 3f), Mean","[2]; WT, mean, number of values 10, Std. Deviation 5.657, SEM 1.789",53.2
same,"calcium imaging response (Fig. 3f), Median","[2]; WT, median, number of values 10",53.9
same,association with dodecylphosphocholine micelles,[3],associates with dodecylphosphocholine micelles
same,Best-fit parameter Bottom,NaV1.7/TMEM233 [4],0.0729
same,Best-fit parameter Hill slope,NaV1.7/TMEM233 [4],1.156
same,Best-fit parameter Top,NaV1.7/TMEM233 [4],0.7692
same,Top,NaV1.7/TMEM233 [4],0.7845
same,"persistent current, Predicted (LS) mean diff.",NaV1.7/TMEM233 [4],-0.5401
same,potency with TMEM233 versus PRRT2 or TRARG1,NaV1.7/TMEM233 [4],significantly more potent when co-expressed with TMEM233
same,"effect on inactivation, toxin in extracellular solution",NaV1.7/TMEM233 [4]; ExTxA 100 nM in ECS,robustly inhibited inactivation
same,"effect on inactivation, toxin in intracellular solution",NaV1.7/TMEM233 [4]; ExTxA 100 nM in ICS,did not affect inactivation
same,"Difference between means (D - C), TMEM233 minus control",NaV1.7/TMEM233 [4]; ExTxA 1 µM,-1468 ± 228.9 pA
same,LogEC50,"NaV1.7/TMEM233 [4]; Nav1.7/TMEM233, 95% CI -8.367 to -8.102, Fig 4g",-8.24
same,HillSlope,"NaV1.7/TMEM233 [4]; Nav1.7/TMEM233, Fig 4g",0.9284
same,persistent current (I40 ms/Ipeak),[5]; individual cells,-0.02037 and -0.04756 and 0.0447 and 0.01578 and 0.03746
same,Δ persistent current (I40 ms/Ipeak; buffer cf. ExTxA),[5]; mean,0.006 ± 0.0175 and 0.006003
same,time constants of recovery from inactivation,NaV1.7/TMEM233 [6],a decrease in the time constants of recovery from inactivation
